Measured values published in article PMC5504357, “Antifungal Potential of Copper(II), Manganese(II) and Silver(I) 1,10-Phenanthroline Chelates Against Multidrug-Resistant Fungal Species Forming the Candida haemulonii Complex: Impact on the Planktonic and Biofilm Lifestyles” (Frontiers in Microbiology, 2017).

What was measured:
[1] = test system: Candida haemulonii var. vulnera; test: Planktonic growth, broth microdilution (CLSI M27-A3), MIC; type: cell-based; conditions: for GM-MIC: geometric mean of three C. haemulonii var. vulnera isolates; for MIC: planktonic, 48 h, 37°C
Method in brief: (§1)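 Clinical isolates (nail, blood, urine) grown 48 h at 37°C in Sabouraud-dextrose, then tested by CLSI M27-A3 broth microdilution in RPMI 1640 over 0.0625-32 mg/L, 48 h at 37°C. MIC is the lowest concentration with no visible growth; geometric mean MIC calculated across all isolates.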

Candida duobushaemulonii [2] = test: as above; type: cell-based; conditions: for GM-MIC: geometric mean of three C. duobushaemulonii isolates; for MIC: planktonic, 48 h, 37°C
Method in brief: as §1

Candida haemulonii [3] = test: as above; type: cell-based; conditions: for GM-MIC: geometric mean of three C. haemulonii isolates; for MIC: planktonic, 48 h, 37°C
Method in brief: as §1

C. haemulonii complex = test: Planktonic growth, overall across all nine isolates; type: cell-based, Candida haemulonii complex; conditions: geometric mean across all nine strains; for MIC: in μM, read-out: Overall GM-MIC
Method in brief: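 Visual read-out: MIC taken as the lowest concentration showing no growth after 48 h incubation at 37°C in RPMI 1640. Compounds were serially diluted from DMSO solutions to 0.0625-32 mg/L, with matching DMSO controls, against three clinical isolates of each species.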

[4] = test system: Candida haemulonii complex; test: Biofilm-growing cells, overall across isolates; type: cell-based; conditions: for Overall GM-bMIC: geometric mean across strains, values marked * do not include LIP Ch4 (>512)
Description: (§2) The effect of the compounds on biofilm-growing cells was determined using the previously described microtiter-based technique (Ramage et al., [2001]). The fungi (10^6 yeast cells) were incubated for 48 h at 37°C in 96-well polystyrene microtiter plates (Corning®, Corning Incorporated, USA) containing Sabouraud-dextrose broth to accommodate biofilm formation. Following biofilm formation, the culture medium was aspirated and non-adherent cells removed by thoroughly washing the wells three times with sterile PBS (0.15 M NaCl, 0.01 M phosphate buffer, pH 7.2). Afterwards, the compounds, at the same concentrations used in the planktonic assays, were added to the wells, and the plates were incubated for further 48 h at 37°C. The metabolic activity was then evaluated using a colorimetric assay that measures the metabolic reduction of 2,3-bis (2-methoxy-4-nitro-5-sulfophenyl)-5-[(phenylamino) carbonyl]-2H-tetrazolium hydroxide (XTT; Sigma-Aldrich) to a water-soluble, brown formazan product (Peeters et al., [2008]). The biofilm MIC (bMIC) for each compound was established as the minimal concentration capable of inhibiting 50% of metabolic activity when compared to compound-free wells (Ziccardi et al., [2015]).

A549 cells = test: Mammalian cell toxicity (MTT assay) and selectivity index; type: cell-based, Human; conditions: MTT, 48 h incubation
Method in brief: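 A549 cells were exposed to compounds (0.0313–512 μg/mL) in DMEM for 48 h at 37 °C, 5% CO2. Viability was measured by MTT (3 h, dark), with formazan dissolved in DMSO and read at 450 nm. CC50 was derived, and SI calculated as A549 CC50 divided by C. haemulonii complex GM-MIC.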

[5] = test system: Candida haemulonii var. vulnera; test: Biofilm-growing cells, XTT assay, bMIC; type: cell-based; conditions: for GM-bMIC: geometric mean, C. haemulonii var. vulnera isolates; for bMIC: mature biofilm, 48 h, 50% inhibition of metabolic activity
Description: as §2

Candida duobushaemulonii [6] = test: Biofilm-growing cells, XTT assay, bMIC; type: cell-based; conditions: for GM-bMIC: geometric mean, C. duobushaemulonii isolates; for bMIC: mature biofilm, 48 h, 50% inhibition of metabolic activity
Description: as §2

Candida haemulonii [7] = test: Biofilm-growing cells, XTT assay, bMIC; type: cell-based; conditions: for GM-bMIC: geometric mean, C. haemulonii isolates, values marked * do not include LIP Ch4 (>512); for bMIC: mature biofilm, 48 h, 50% inhibition of metabolic activity
Description: as §2

Compound	GM-MIC [1]	MIC ([1]; isolate LIP Ch5)	MIC ([1]; isolate LIP Ch9)	MIC ([1]; isolate LIP Ch11)	GM-MIC (Candida duobushaemulonii [2])	MIC (Candida duobushaemulonii [2]; isolate LIP Ch1)	MIC (Candida duobushaemulonii [2]; isolate LIP Ch6)	MIC (Candida duobushaemulonii [2]; isolate LIP Ch8)	GM-MIC (Candida haemulonii [3])	MIC (Candida haemulonii [3]; isolate LIP Ch4)	MIC (Candida haemulonii [3]; isolate LIP Ch7)	MIC (Candida haemulonii [3]; isolate LIP Ch12)	Overall GM-MIC (C. haemulonii complex)	MIC (C. haemulonii complex)	Overall GM-bMIC [4]	A549 (CC50) (A549 cells)	GM-bMIC [5]	bMIC ([5]; isolate LIP Ch5)	bMIC ([5]; isolate LIP Ch9)	bMIC ([5]; isolate LIP Ch13)	further results
{[Mn(3,6,9-tdda)(phen)2].3H2O.EtOH}n [compound 14]	2 µg/mL	2 µg/mL	2 µg/mL	2 µg/mL	3.17 µg/mL	4 µg/mL	4 µg/mL	2 µg/mL	2 µg/mL	2 µg/mL	2 µg/mL	2 µg/mL	2.33 µg/mL	3.15 µM	11.76 mg/L	261.67 µg/mL	8 mg/L	16 mg/L	4 mg/L	8 mg/L	GM-bMIC (Candida duobushaemulonii [6]): 10.08 mg/L; bMIC (Candida duobushaemulonii [6]; isolate LIP Ch1): 16 mg/L; bMIC (Candida duobushaemulonii [6]; isolate LIP Ch6): 4 mg/L; bMIC (Candida duobushaemulonii [6]; isolate LIP Ch8): 16 mg/L; GM-bMIC (Candida haemulonii [7]): 20.16 mg/L; bMIC (Candida haemulonii [7]; isolate LIP Ch4): 512 mg/L; bMIC (Candida haemulonii [7]; isolate LIP Ch7): 4 mg/L; bMIC (Candida haemulonii [7]; isolate LIP Ch14): 4 mg/L
O.O.O.O.O=C1C(=O)c2cccnc2-c2ncccc21.O=C1C(=O)c2cccnc2-c2ncccc21.O=C1C(=O)c2cccnc2-c2ncccc21.[Cu+2].[O-][Cl+3]([O-])([O-])[O-].[O-][Cl+3]([O-])([O-])[O-] [compound 6, [Cu(phendione)3](ClO4)2.4H2O]	6.35 µg/mL	4 µg/mL	8 µg/mL	8 µg/mL	8 µg/mL	8 µg/mL	16 µg/mL	4 µg/mL	16 µg/mL	16 µg/mL	16 µg/mL	16 µg/mL	9.33 µg/mL	9.65 µM	27.43 mg/L	0.68 µg/mL	32 mg/L	32 mg/L	32 mg/L	32 mg/L	Overall GM-bMIC ([4]; in μM): 28.42 µM; GM-bMIC (Candida duobushaemulonii [6]): 12.70 mg/L; bMIC (Candida duobushaemulonii [6]; isolate LIP Ch1): 16 mg/L; bMIC (Candida duobushaemulonii [6]; isolate LIP Ch6): 16 mg/L; bMIC (Candida duobushaemulonii [6]; isolate LIP Ch8): 8 mg/L; GM-bMIC (Candida haemulonii [7]): 50.80 mg/L; bMIC (Candida haemulonii [7]; isolate LIP Ch4): 256 mg/L; bMIC (Candida haemulonii [7]; isolate LIP Ch7): 32 mg/L; bMIC (Candida haemulonii [7]; isolate LIP Ch14): 16 mg/L
O.O.O.O=C([O-])CCCCCCCCCC(=O)[O-].[Ag+].[Ag+].c1cnc2c(c1)ccc1cccnc12.c1cnc2c(c1)ccc1cccnc12.c1cnc2c(c1)ccc1cccnc12 [compound 18, [Ag2(phen)3(udda)].3H2O]	0.25 µg/mL	0.5 µg/mL	0.125 µg/mL	0.25 µg/mL	0.5 µg/mL	0.5 µg/mL	0.25 µg/mL	1 µg/mL	0.16 µg/mL	0.125 µg/mL	0.25 µg/mL	0.125 µg/mL	0.27 µg/mL	0.26 µM	12.34 mg/L	13.63 µg/mL	11.31 mg/L	8 mg/L	0.5 mg/L	16 mg/L	decrease in activity on going from planktonic to biofilm cells ([4]; biofilm MIC versus planktonic MIC): 46.3 fold; Overall GM-bMIC ([4]; in μM): 12.04 µM; GM-bMIC (Candida duobushaemulonii [6]): 10.08 mg/L; bMIC (Candida duobushaemulonii [6]; isolate LIP Ch1): 16 mg/L; bMIC (Candida duobushaemulonii [6]; isolate LIP Ch6): 8 mg/L; bMIC (Candida duobushaemulonii [6]; isolate LIP Ch8): 8 mg/L; GM-bMIC (Candida haemulonii [7]): 16 mg/L; bMIC (Candida haemulonii [7]; isolate LIP Ch4): 32 mg/L; bMIC (Candida haemulonii [7]; isolate LIP Ch7): 8 mg/L; bMIC (Candida haemulonii [7]; isolate LIP Ch14): 16 mg/L
O.O.O.O.O.O.O=C([O-])CCCCCCC(=O)[O-].O=C([O-])CCCCCCC(=O)[O-].O=C([O-])CCCCCCC(=O)[O-].O=C([O-])CCCCCCC(=O)[O-].[Mn+2].[Mn+2].[Mn+2].[Mn+2].c1cnc2c(c1)ccc1cccnc12.c1cnc2c(c1)ccc1cccnc12.c1cnc2c(c1)ccc1cccnc12.c1cnc2c(c1)ccc1cccnc12.c1cnc2c(c1)ccc1cccnc12.c1cnc2c(c1)ccc1cccnc12.c1cnc2c(c1)ccc1cccnc12.c1cnc2c(c1)ccc1cccnc12 [compound 13, [Mn2(oda)(phen)4(H2O)2][Mn2(oda)(phen)4(oda)2].4H2O]	2 µg/mL	2 µg/mL	2 µg/mL	2 µg/mL	2.52 µg/mL	2 µg/mL	4 µg/mL	2 µg/mL	2 µg/mL	2 µg/mL	2 µg/mL	2 µg/mL	2.16 µg/mL	0.87 µM	8.72 mg/L	>512 µg/mL	8 mg/L	16 mg/L	4 mg/L	8 mg/L	GM-bMIC (Candida duobushaemulonii [6]): 5.04 mg/L; bMIC (Candida duobushaemulonii [6]; isolate LIP Ch1): 4 mg/L; bMIC (Candida duobushaemulonii [6]; isolate LIP Ch6): 4 mg/L; bMIC (Candida duobushaemulonii [6]; isolate LIP Ch8): 8 mg/L; GM-bMIC (Candida haemulonii [7]): 22.63^* mg/L; bMIC (Candida haemulonii [7]; isolate LIP Ch4): >512 mg/L; bMIC (Candida haemulonii [7]; isolate LIP Ch7): 32 mg/L; bMIC (Candida haemulonii [7]; isolate LIP Ch14): 16 mg/L
O.O.O.O.O.O=C([O-])c1ccc(C(=O)[O-])cc1.[Mn+2].c1cnc2c(c1)ccc1cccnc12.c1cnc2c(c1)ccc1cccnc12 [compound 12, [Mn(tereph)(phen)2].5H2O]	4 µg/mL	4 µg/mL	4 µg/mL	4 µg/mL	4 µg/mL	4 µg/mL	4 µg/mL	4 µg/mL	4 µg/mL	4 µg/mL	4 µg/mL	4 µg/mL	4 µg/mL	5.96 µM	10.37 mg/L	251.94 µg/mL	5.04 mg/L	2 mg/L	4 mg/L	16 mg/L	Overall GM-bMIC ([4]; in μM): 15.48 µM; GM-bMIC (Candida duobushaemulonii [6]): 16 mg/L; bMIC (Candida duobushaemulonii [6]; isolate LIP Ch1): 32 mg/L; bMIC (Candida duobushaemulonii [6]; isolate LIP Ch6): 8 mg/L; bMIC (Candida duobushaemulonii [6]; isolate LIP Ch8): 16 mg/L; GM-bMIC (Candida haemulonii [7]): 16^* mg/L; bMIC (Candida haemulonii [7]; isolate LIP Ch4): >512 mg/L; bMIC (Candida haemulonii [7]; isolate LIP Ch7): 16 mg/L; bMIC (Candida haemulonii [7]; isolate LIP Ch14): 16 mg/L
